Measured values reported in patent publication US20080009418A1, “Selective Inhibitors” (Alchemia LTD., priority 2004, published 2008).

Legend:
Human Melanocortin (MC4) = target: T1, Human Melanocortin (MC4) (Homo sapiens, UniProt P32245); test: Radioligand binding, human melanocortin MC4 membranes, FlashPlate, [125I]-NDP-αMSH; conditions: compound at 10 μM, [125I]-NDP-αMSH
T1 construct: purchased Perkin Elmer Biosignal
Summary of the method: (§1)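 Cloned human receptor membranes were coated onto FlashPlate wells and incubated with radioligand and compound (added from a 0.5 mM DMSO daughter plate) for 1 hour at room temperature in the dark. Scintillation counting gave percent inhibition, with DMSO defining total and reference ligand defining non-specific binding.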

Human opioid (ORL1) = target: T2, Human opioid (ORL1) (Homo sapiens, UniProt P41146); test: Radioligand binding, human opioid ORL1 membranes, FlashPlate, [125I]-Nociceptin; conditions: compound at 10 μM, [125I]-Nociceptin
T2 construct: purchased Perkin Elmer Biosignal
T2 sequence (P41146 whole entry): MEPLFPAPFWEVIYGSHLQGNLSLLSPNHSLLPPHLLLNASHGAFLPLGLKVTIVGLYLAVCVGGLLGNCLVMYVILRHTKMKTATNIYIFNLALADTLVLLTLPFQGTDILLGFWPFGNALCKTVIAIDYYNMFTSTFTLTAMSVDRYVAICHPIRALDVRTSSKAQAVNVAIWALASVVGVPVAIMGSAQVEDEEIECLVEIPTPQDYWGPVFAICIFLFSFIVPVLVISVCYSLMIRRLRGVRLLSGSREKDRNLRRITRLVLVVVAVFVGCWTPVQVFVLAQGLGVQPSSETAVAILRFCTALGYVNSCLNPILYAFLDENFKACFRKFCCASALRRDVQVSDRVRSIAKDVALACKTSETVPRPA
Summary of the method: as §1

Human δ-opioid (DOP) = target: T3, Human δ-opioid (DOP) (Homo sapiens, UniProt P41143); test: Radioligand binding, human δ-opioid (DOP) membranes, FlashPlate, [3H]-Bremazocine; conditions: compound at 10 μM, [3H]-Bremazocine
T3 construct: purchased Perkin Elmer Biosignal
T3 sequence (P41143 whole entry): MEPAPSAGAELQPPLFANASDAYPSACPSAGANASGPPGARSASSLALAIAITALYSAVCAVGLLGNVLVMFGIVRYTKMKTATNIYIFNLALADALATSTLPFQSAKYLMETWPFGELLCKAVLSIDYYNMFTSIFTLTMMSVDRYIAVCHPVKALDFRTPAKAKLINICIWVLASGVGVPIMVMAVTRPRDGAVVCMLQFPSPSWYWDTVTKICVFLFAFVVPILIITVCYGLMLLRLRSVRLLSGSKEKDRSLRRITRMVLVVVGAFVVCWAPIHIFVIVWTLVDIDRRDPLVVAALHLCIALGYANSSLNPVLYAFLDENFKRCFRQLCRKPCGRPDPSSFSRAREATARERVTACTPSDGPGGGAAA
Summary of the method: as §1

Human κ-Opioid (KOP) = target: T4, Human κ-Opioid (KOP) (Homo sapiens, UniProt P41145); test: Radioligand binding, human κ-opioid (KOP) membranes, filtration, [3H]-Diprenorphine; conditions: compound at 10 μM, [3H]-Diprenorphine
T4 construct: purchased Perkin Elmer Biosignal
T4 sequence (P41145 whole entry): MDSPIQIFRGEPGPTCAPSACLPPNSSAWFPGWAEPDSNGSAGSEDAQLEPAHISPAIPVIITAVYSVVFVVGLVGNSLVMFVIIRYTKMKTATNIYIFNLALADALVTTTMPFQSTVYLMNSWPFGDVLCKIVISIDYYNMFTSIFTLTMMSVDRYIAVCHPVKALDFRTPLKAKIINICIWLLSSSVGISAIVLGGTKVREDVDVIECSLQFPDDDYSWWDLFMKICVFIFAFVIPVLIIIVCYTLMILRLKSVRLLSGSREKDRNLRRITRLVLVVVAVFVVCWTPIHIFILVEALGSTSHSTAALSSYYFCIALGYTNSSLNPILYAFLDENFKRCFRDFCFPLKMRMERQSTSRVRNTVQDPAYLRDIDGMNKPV
Summary of the method: (§2)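 Filtration binding on cloned human receptor membranes (1 Unit/well), [125I]-Substance P for NK1 and [3H]-Diprenorphine for KOP, 1 h at room temperature. Filters PEI-presoaked, washed with cold 50 mM Tris-HCl pH 7.4, counted by scintillation; percent inhibition calculated, reference ligand defining non-specific binding.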

Human neurokinin (NK1) = target: T5, Human neurokinin (NK1) (Homo sapiens, UniProt P25103); test: Radioligand binding, human neurokinin NK1 membranes, filtration, [125I]-Substance P; conditions: compound at 10 μM, [125I]-Substance P
T5 construct: purchased Perkin Elmer Biosignal
T5 sequence (P25103 whole entry): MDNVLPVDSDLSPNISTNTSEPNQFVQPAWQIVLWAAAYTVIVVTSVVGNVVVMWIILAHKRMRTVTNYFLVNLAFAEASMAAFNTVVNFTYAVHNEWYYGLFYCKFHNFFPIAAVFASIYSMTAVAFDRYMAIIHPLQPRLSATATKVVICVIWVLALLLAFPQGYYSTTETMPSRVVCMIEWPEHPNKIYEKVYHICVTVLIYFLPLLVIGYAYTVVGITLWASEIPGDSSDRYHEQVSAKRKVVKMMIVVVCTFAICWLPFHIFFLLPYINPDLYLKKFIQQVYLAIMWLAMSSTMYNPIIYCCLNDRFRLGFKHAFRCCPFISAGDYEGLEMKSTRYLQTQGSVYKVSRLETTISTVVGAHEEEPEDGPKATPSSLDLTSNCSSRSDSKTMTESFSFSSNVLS
Summary of the method: as §2

Human μ-opioid (MOP) = target: T6, Human μ-opioid (MOP) (Homo sapiens, UniProt P35372); test: Radioligand binding, human μ-opioid (MOP) membranes, FlashPlate, [3H]-Naloxone; conditions: compound at 10 μM, [3H]-Naloxone
T6 construct: purchased Perkin Elmer Biosignal
T6 sequence (P35372 whole entry): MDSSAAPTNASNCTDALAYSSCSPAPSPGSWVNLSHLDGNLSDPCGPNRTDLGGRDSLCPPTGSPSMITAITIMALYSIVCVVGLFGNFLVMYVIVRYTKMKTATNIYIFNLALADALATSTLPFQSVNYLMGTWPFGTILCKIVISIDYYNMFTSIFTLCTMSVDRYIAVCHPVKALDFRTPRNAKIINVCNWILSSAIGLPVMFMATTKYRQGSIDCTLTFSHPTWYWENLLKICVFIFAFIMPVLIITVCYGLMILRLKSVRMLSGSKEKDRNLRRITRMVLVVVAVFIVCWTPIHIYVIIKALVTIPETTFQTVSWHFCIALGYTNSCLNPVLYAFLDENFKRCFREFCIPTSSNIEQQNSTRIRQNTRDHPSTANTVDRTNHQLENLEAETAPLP
Summary of the method: as §1

Human Melanocortin (MC3) = target: T7, Human Melanocortin (MC3) (Homo sapiens, UniProt P41968); test: Radioligand binding, human melanocortin MC3 membranes, FlashPlate, [125I]-NDP-αMSH; conditions: compound at 10 μM, [125I]-NDP-αMSH
T7 construct: purchased Perkin Elmer Biosignal
T7 sequence (P41968 whole entry): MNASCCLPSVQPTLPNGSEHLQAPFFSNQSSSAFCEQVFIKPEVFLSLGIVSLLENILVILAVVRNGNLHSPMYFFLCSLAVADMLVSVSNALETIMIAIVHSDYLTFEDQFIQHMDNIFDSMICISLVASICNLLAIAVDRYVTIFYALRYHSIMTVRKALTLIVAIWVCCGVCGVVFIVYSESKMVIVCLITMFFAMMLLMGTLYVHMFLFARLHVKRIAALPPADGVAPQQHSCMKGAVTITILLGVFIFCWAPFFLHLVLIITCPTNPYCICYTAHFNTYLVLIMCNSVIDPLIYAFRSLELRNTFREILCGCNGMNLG
Summary of the method: as §1

Human melanocortin (MC5) = target: T8, Human melanocortin (MC5) (Homo sapiens, UniProt P33032); test: Radioligand binding, human melanocortin MC5 membranes, FlashPlate, [125I]-NDP-αMSH; conditions: compound at 10 μM, [125I]-NDP-αMSH
T8 construct: purchased Perkin Elmer Biosignal
T8 sequence (P33032 whole entry): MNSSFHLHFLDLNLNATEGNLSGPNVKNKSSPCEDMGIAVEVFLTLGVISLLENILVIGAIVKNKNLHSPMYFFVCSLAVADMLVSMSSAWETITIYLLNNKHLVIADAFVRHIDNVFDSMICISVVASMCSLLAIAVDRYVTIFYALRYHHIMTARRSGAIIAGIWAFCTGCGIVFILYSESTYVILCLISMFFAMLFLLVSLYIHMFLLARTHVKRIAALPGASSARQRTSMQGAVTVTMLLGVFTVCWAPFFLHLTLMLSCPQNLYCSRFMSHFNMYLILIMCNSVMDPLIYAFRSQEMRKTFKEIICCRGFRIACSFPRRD
Summary of the method: as §1

Mouse urotensin (mUR2) = target: T9, Mouse urotensin (mUR2) (Mus musculus, UniProt Q8VIH9); test: Radioligand binding, mouse urotensin mUR2 membranes, FlashPlate, [125I]-Urotensin II; conditions: compound at 10 μM, [125I]-Urotensin II
T9 construct: purchased Perkin Elmer Biosignal
T9 sequence (Q8VIH9 1-385): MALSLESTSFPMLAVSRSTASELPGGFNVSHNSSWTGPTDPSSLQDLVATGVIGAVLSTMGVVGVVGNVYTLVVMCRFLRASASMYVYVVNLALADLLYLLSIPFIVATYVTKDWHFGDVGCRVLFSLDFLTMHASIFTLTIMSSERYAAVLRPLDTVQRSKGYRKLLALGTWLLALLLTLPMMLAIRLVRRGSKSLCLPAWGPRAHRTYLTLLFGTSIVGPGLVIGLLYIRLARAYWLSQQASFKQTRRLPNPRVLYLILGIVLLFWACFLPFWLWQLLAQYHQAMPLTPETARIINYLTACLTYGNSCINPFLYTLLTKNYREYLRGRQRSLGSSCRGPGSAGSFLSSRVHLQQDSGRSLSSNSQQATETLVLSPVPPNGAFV
Summary of the method: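 Cloned mouse urotensin (mUR2) receptor membranes from Perkin Elmer Biosignal were immobilized in FlashPlate microplates using a proprietary coating. Each well got 19.5 μl buffer, then 0.5 μl of DMSO, reference ligand, or compound. Adding 5 μl of [125I]-Urotensin II, diluted to 5× final concentration in binding buffer, started binding. Plates were sealed with TopSeal-A and incubated 1 hour at room temperature in the dark. Wells were counted for 30 seconds each on a TopCount after a 60-second delay, and percentage inhibition was calculated.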

[1] = target: T10, Human melanin-concentrating hormone (MCH1) (Homo sapiens, UniProt Q99705); test: Radioligand binding, human melanin-concentrating hormone MCH1 membranes, FlashPlate, [125I]-S36057; conditions: compound at 10 μM; for A6: inhibition of radioligand binding, human melanin-concentrating hormone (MCH1): [125I]-S36057
T10 construct: purchased Perkin Elmer Biosignal
T10 sequence (Q99705 whole entry): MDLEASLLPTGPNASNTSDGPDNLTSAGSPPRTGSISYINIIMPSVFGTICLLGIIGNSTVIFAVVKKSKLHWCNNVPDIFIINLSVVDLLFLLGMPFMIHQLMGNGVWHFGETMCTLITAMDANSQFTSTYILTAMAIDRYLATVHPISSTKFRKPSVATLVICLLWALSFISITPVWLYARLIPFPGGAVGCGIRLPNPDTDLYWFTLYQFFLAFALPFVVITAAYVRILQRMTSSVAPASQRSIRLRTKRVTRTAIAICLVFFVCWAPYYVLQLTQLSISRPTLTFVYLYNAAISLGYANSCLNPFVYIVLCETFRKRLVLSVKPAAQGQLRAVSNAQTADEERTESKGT
Summary of the method: as §1

[2] = target: T11, Human neuropeptide Y (NPY-Y1) (Homo sapiens, UniProt P25929); test: Radioligand binding, human neuropeptide Y NPY-Y1 membranes, FlashPlate, [125I]-PYY; conditions: compound at 10 μM, [125I]-PYY
T11 construct: purchased Perkin Elmer Biosignal
T11 sequence (P25929 1-384): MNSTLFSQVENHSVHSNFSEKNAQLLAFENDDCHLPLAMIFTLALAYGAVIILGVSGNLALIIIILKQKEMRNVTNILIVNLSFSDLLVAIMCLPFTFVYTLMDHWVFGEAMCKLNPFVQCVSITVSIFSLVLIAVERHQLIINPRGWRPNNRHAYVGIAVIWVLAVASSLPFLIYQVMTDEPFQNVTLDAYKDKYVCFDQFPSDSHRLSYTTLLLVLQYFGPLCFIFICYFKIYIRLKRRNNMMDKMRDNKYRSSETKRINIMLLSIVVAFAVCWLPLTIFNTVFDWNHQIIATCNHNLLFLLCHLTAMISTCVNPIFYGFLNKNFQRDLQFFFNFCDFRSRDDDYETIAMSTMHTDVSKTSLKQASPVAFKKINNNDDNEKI
Summary of the method: as §1

T1 sequence (P32245 whole entry): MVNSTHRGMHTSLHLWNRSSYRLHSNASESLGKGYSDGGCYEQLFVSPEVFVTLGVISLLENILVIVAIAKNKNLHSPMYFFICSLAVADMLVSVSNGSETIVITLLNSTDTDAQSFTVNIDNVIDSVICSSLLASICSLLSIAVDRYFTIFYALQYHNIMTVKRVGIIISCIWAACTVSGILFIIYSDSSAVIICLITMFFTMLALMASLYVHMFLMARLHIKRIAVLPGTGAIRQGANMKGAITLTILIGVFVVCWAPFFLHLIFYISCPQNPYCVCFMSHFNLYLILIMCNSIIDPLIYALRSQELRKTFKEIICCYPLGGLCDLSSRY

Row | Compound | A4: inhibition of radioligand binding, human melanocortin (MC4) (Human Melanocortin (MC4)) | A1: inhibition of radioligand binding, human δ-opioid (DOP) (Human δ-opioid (DOP)) | A2: inhibition of radioligand binding, human κ-opioid (KOP) (Human κ-Opioid (KOP)) | A8: inhibition of radioligand binding, human neurokinin (NK1) (Human neurokinin (NK1)) | A3: inhibition of radioligand binding, human melanocortin (MC3) (Human Melanocortin (MC3)) | A5: inhibition of radioligand binding, human melanocortin (MC5) (Human melanocortin (MC5)) | A11: inhibition of radioligand binding, mouse urotensin (mUR2) (Mouse urotensin (mUR2)) | A6: inhibition of radioligand binding, human melanin-concentrating hormone (MCH1) [1] | A9: inhibition of radioligand binding, human neuropeptide Y (NPY-Y1) [2] | A4: inhibition of radioligand binding (Human Melanocortin (MC4); FlashPlate) | A10: inhibition of radioligand binding (Human opioid (ORL1); FlashPlate) | A1: inhibition of radioligand binding (Human δ-opioid (DOP); FlashPlate) | A2: inhibition of radioligand binding (Human κ-Opioid (KOP); filtration) | A8: inhibition of radioligand binding (Human neurokinin (NK1); filtration) | A7: inhibition of radioligand binding (Human μ-opioid (MOP); FlashPlate) | A3: inhibition of radioligand binding (Human Melanocortin (MC3); FlashPlate) | A5: inhibition of radioligand binding (Human melanocortin (MC5); FlashPlate) | A11: inhibition of radioligand binding (Mouse urotensin (mUR2); FlashPlate) | A6: inhibition of radioligand binding ([1]; [125I]-S36057, FlashPlate) | A9: inhibition of radioligand binding ([2]; FlashPlate) | also measured
1 | CO[C@H]1[C@H](O)[C@@H](COCc2ccc3ccccc3c2)OC(OCc2ccc(Cl)cc2)[C@@H]1NC(=O)CNC(=N)N (stereo partly shown) [compound 355] | + (“+” indicates greater than 50% inhibition at 10 μM) | − (“−” indicates less than 50% inhibition at 10 μM) | − (“−” indicates less than 50% inhibition at 10 μM) | + (“+” indicates greater than 50% inhibition at 10 μM) | − (“−” indicates less than 50% inhibition at 10 μM) | + (“+” indicates greater than 50% inhibition at 10 μM) | − (“−” indicates less than 50% inhibition at 10 μM) | − (“−” indicates less than 50% inhibition at 10 μM) | − (“−” indicates less than 50% inhibition at 10 μM) | – | – | – | – | – | – | – | – | – | – | – | A10: inhibition of radioligand binding, human opioid (ORL1) (Human opioid (ORL1)): − (“−” indicates less than 50% inhibition at 10 μM); A7: inhibition of radioligand binding, human μ-opioid (MOP) (Human μ-opioid (MOP)): − (“−” indicates less than 50% inhibition at 10 μM)
2 | CSC1OC(COCc2ccc(Cl)cc2)C(O)C(OCc2ccc(Cl)cc2)C1NC(=O)CN (stereo not shown) [compound 269] | – | – | – | – | – | – | – | – | – | − (“−” indicates less than 50% inhibition at 10 μM) | − (“−” indicates less than 50% inhibition at 10 μM) | − (“−” indicates less than 50% inhibition at 10 μM) | − (“−” indicates less than 50% inhibition at 10 μM) | + (“+” indicates greater than 50% inhibition at 10 μM) | − (“−” indicates less than 50% inhibition at 10 μM) | − (“−” indicates less than 50% inhibition at 10 μM) | − (“−” indicates less than 50% inhibition at 10 μM) | − (“−” indicates less than 50% inhibition at 10 μM) | − (“−” indicates less than 50% inhibition at 10 μM) | − (“−” indicates less than 50% inhibition at 10 μM) | –
3 | CSC1O[C@H](COCc2ccc(Cl)cc2)[C@@H](O)[C@@H](OCc2ccc(Cl)cc2)[C@H]1NC(=O)CCNC(=N)N (stereo partly shown) [compound 272] | – | – | – | – | – | – | – | – | – | + (“+” indicates greater than 50% inhibition at 10 μM) | − (“−” indicates less than 50% inhibition at 10 μM) | − (“−” indicates less than 50% inhibition at 10 μM) | − (“−” indicates less than 50% inhibition at 10 μM) | + (“+” indicates greater than 50% inhibition at 10 μM) | − (“−” indicates less than 50% inhibition at 10 μM) | − (“−” indicates less than 50% inhibition at 10 μM) | + (“+” indicates greater than 50% inhibition at 10 μM) | − (“−” indicates less than 50% inhibition at 10 μM) | − (“−” indicates less than 50% inhibition at 10 μM) | − (“−” indicates less than 50% inhibition at 10 μM) | –
4 | NCCCC(=O)NC1C(OCc2ccc(Cl)cc2)OC(COCc2ccc(Cl)cc2)C(O)C1OCc1ccccc1 (single isomer, unassigned) [compound 505] | − (“−” indicates less than 50% inhibition at 10 μM) | − (“−” indicates less than 50% inhibition at 10 μM) | − (“−” indicates less than 50% inhibition at 10 μM) | + (“+” indicates greater than 50% inhibition at 10 μM) | − (“−” indicates less than 50% inhibition at 10 μM) | + (“+” indicates greater than 50% inhibition at 10 μM) | − (“−” indicates less than 50% inhibition at 10 μM) | − (“−” indicates less than 50% inhibition at 10 μM) | − (“−” indicates less than 50% inhibition at 10 μM) | – | – | – | – | – | – | – | – | – | – | – | A10: inhibition of radioligand binding, human opioid (ORL1) (Human opioid (ORL1); 10 µM): − (“−” indicates less than 50% inhibition at 10 μM); A7: inhibition of radioligand binding, human μ-opioid (MOP) (Human μ-opioid (MOP); 10 µM): + (“+” indicates greater than 50% inhibition at 10 μM)
5 | N=C(N)NCC(=O)NC1C(OCc2ccc(-c3ccccc3)cc2)OC(COCc2ccc(Cl)cc2)C(O)C1OCc1ccc2ccccc2c1 (stereo not shown) [compound 404] | – | – | – | – | – | – | – | – | – | – | – | – | – | – | – | – | – | – | – | – | A4: inhibition of radioligand binding (Human Melanocortin (MC4); human MC4 membranes): + (“+” indicates greater than 50% inhibition at 10 μM); A10: inhibition of radioligand binding (Human opioid (ORL1); human ORL1 membranes): + (“+” indicates greater than 50% inhibition at 10 μM); A1: inhibition of radioligand binding (Human δ-opioid (DOP); human DOP membranes): − (“−” indicates less than 50% inhibition at 10 μM); A2: inhibition of radioligand binding (Human κ-Opioid (KOP); human KOP membranes): − (“−” indicates less than 50% inhibition at 10 μM); A8: inhibition of radioligand binding (Human neurokinin (NK1); human NK1 membranes): + (“+” indicates greater than 50% inhibition at 10 μM); A7: inhibition of radioligand binding (Human μ-opioid (MOP); human MOP membranes): − (“−” indicates less than 50% inhibition at 10 μM); A3: inhibition of radioligand binding (Human Melanocortin (MC3); human MC3 membranes): + (“+” indicates greater than 50% inhibition at 10 μM); A5: inhibition of radioligand binding (Human melanocortin (MC5); human MC5 membranes): + (“+” indicates greater than 50% inhibition at 10 μM); A11: inhibition of radioligand binding (Mouse urotensin (mUR2); mouse mUR2 membranes): − (“−” indicates less than 50% inhibition at 10 μM); A6: inhibition of radioligand binding ([1]; [125I]-S36057, human MCH1 membranes): − (“−” indicates less than 50% inhibition at 10 μM); A9: inhibition of radioligand binding ([2]; human NPY-Y1 membranes): − (“−” indicates less than 50% inhibition at 10 μM)
